{
  "source": "patent US7919498B2",
  "about": "“Substituted pyrazolo[3,4-d]pyrimidines as PI3K inhibitors” (Amgen Inc., priority 2007, dated 2011)",
  "key": {"[1]": {"system": "mouse model of rheumatoid arthritis", "settings": "in vivo; cited from earlier work"}, "[2]": {"system": "model of systemic lupus erythematosis", "settings": "in vivo; cited from earlier work"}, "[3]": {"system": "human B cells", "assay": "Human B cells proliferation stimulated by anti-IgM", "assay_type": "cell-based", "settings": "B-cell; anti-Human IgM + CD40L-LZ, 72 h, 3H thymidine", "description": "Human B Cells Proliferation Stimulate by Anti-IgM\nIsolate PBMCs from Leukopac or from human fresh blood. Isolate human B cells by using Miltenyi protocol and B cell isolation kit II.—human B cells were Purified by using AutoMacs.column.\nActivation of Human B Cells\nUse 96 well Flat bottom plate, plate 50000/well purified B cells in B cell proliferation medium (DMEM+5% FCS, 10 mM Hepes, 50 μM 2-mercaptoethanol); 150 μL medium contain 250 ng/mL CD40L-LZ recombinant protein (Amgen) and 2 μg/mL anti-Human IgM antibody (Jackson ImmunoReseach Lab.# 109-006-129), mixed with 50 μL B cell medium containing PI3K inhibitors and incubate 72 h at 37° C. incubator. After 72 h, pulse labeling B cells with 0.5-1 uCi/well ^3H thymidine for overnight ˜18 h, and harvest cell using TOM harvester."}, "[4]": {"target": "T1, p110δ (Homo sapiens, UniProt O00329)", "T1 sequence (O00329 1-1044)": "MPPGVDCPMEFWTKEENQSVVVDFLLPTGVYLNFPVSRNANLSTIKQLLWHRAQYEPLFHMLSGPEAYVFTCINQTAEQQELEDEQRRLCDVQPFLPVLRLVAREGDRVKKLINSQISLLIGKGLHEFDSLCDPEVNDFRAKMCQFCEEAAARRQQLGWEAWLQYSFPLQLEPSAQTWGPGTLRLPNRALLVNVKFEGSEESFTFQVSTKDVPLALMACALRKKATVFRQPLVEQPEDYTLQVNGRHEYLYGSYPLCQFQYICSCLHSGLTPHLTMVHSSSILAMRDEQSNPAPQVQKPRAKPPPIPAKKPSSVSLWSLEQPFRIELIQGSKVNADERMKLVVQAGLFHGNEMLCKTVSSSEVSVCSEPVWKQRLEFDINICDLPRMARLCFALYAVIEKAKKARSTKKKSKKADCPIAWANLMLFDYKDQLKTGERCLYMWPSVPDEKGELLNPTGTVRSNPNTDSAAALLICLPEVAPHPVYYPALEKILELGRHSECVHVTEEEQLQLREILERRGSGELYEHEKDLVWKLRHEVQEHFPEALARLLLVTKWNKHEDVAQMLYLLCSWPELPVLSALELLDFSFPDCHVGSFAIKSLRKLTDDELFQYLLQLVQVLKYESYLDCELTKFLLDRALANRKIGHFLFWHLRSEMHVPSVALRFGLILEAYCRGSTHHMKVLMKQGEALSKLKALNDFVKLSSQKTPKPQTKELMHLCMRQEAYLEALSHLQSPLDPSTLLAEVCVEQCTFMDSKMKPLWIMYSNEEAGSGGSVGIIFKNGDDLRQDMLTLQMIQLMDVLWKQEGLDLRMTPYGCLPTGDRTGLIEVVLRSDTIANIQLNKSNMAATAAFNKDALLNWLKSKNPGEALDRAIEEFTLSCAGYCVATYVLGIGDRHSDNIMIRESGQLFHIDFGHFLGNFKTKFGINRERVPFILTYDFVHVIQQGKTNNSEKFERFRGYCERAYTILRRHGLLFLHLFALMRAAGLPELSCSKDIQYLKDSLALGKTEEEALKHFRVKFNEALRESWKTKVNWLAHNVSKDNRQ", "settings": "cited from earlier work"}, "[5]": {"system": "protein kinases", "settings": "cited from earlier work"}, "[6]": {"system": "murine model of asthma", "settings": "ovalbumin-induced airway inflammation; cited from earlier work"}},
  "note": "pIC50: −log10 of the molar value.",
  "data": [
    {"smiles": "O=C1NC(=O)/C(=C\\c2ccc3nccnc3c2)S1", "note": "[AS 605240]", "values": [
      {"measurement": "efficacy in mouse model of rheumatoid arthritis", "setting": "[1]", "result": "efficacious"},
      {"measurement": "onset of disease in model of systemic lupus erythematosis", "setting": "[2]", "result": "delay onset of disease"}
    ]},
    {"smiles": "Cn1cc(-c2nn(Cc3cc4c(Cl)cccc4nc3-c3ccccc3Cl)c3ncnc(N)c23)cn1", "note": "[Example 26, 1-((5-chloro-2-(2-chlorophenyl)quinolin-3-yl)methyl)-3-(1-methyl-1H-pyrazol-4-yl)-1H-pyrazolo[3,4-d]pyrimidin-4-amine]", "values": [
      {"measurement": "pIC50", "setting": "[3]", "result": 7.33}
    ]},
    {"smiles": "Cc1nn(Cc2cc3cccc(Cl)c3nc2-c2ccccc2C(F)(F)F)c2ncnc(N)c12", "note": "[Example 30, 1-((8-chloro-2-(2-(trifluoromethyl)phenyl)quinolin-3-yl)methyl)-3-methyl-1H-pyrazolo[3,4-d]pyrimidin-4-amine]", "values": [
      {"measurement": "pIC50", "setting": "[3]", "result": 7.35}
    ]},
    {"smiles": "Cc1nn(Cc2cc3c(Cl)cccc3nc2-c2ccccc2C(F)(F)F)c2ncnc(N)c12", "note": "[Example 31, 1-((5-Chloro-2-(2-(trifluoromethyl)phenyl)quinolin-3-yl)methyl)-3-methyl-1H-pyrazolo[3,4-d]pyrimidin-4-amine]", "values": [
      {"measurement": "pIC50", "setting": "[3]", "result": 6.87}
    ]},
    {"smiles": "Cc1ccccc1-n1c(Cn2cnc3c(N)ncnc32)nc2cccc(C)c2c1=O", "note": "[IC87114]", "values": [
      {"measurement": "inhibition of p110δ", "setting": "[4]", "result": "high nanomolar range (triple digit)"},
      {"measurement": "activity against any protein kinases tested", "setting": "[5]", "result": "no activity"},
      {"measurement": "inflammation and disease in murine model of asthma", "setting": "[6]", "result": "significantly ameliorate inflammation and disease"}
    ]}
  ]
}
